Reference: patent publication US10647738B2, “Xylene-based amphiphilic compound and use thereof” (Industry-University Cooperation Foundation Hanyang …, priority 2016, dated 2020)
Where “and” joins values, the source holds several entries; their conditions need not be identical. Equal values may be shown once. Entries after “also recorded” stand apart in the source; their conditions may differ.

Experiments:
[1] = Critical micelle concentration by fluorescence staining with diphenylhexatriene (DPH); assay type: physicochemical; settings: aqueous solution
Experimental: While a method for measuring CMC is not particularly limited, a method widely known in the art may be used, and the measurement may be performed by, for example, a fluorescence staining method using diphenylhexatriene (DPH).
(§1) Specifically, the critical micellar concentration (CMC) was measured using fluorescence staining and diphenylhexatriene (DPH), and the hydrodynamic radii (Rh) of the micelles formed by agents were measured through a dynamic light scattering (DLS) experiment. The measured results are shown in Tables 1 and 2, compared with a conventional amphiphilic molecule (detergent), DDM.

[2] = Hydrodynamic radius and size distribution of micelles by dynamic light scattering (DLS); assay type: physicochemical
Experimental: A method for measuring the radius of a micelle is not particularly limited, but a method well known in the art may be used, and for example, the measurement may be performed using a dynamic light scattering (DLS) experiment.
as §1

[3] = molecular target: T1, boron transporter (Bor1) (Arabidopsis thaliana, UniProt Q8VYR7); test: Bor1 structural stability in detergent solution, CPM assay; settings: CMC+0.04 wt % and CMC+0.2 wt %; two hours at 40° C.
T1 construct: GFP-His (TEV-cleavable) (C, cleaved yes); made in house; host or cells: S. cerevisiae
T1 sequence (Q8VYR7 whole entry, species assumed): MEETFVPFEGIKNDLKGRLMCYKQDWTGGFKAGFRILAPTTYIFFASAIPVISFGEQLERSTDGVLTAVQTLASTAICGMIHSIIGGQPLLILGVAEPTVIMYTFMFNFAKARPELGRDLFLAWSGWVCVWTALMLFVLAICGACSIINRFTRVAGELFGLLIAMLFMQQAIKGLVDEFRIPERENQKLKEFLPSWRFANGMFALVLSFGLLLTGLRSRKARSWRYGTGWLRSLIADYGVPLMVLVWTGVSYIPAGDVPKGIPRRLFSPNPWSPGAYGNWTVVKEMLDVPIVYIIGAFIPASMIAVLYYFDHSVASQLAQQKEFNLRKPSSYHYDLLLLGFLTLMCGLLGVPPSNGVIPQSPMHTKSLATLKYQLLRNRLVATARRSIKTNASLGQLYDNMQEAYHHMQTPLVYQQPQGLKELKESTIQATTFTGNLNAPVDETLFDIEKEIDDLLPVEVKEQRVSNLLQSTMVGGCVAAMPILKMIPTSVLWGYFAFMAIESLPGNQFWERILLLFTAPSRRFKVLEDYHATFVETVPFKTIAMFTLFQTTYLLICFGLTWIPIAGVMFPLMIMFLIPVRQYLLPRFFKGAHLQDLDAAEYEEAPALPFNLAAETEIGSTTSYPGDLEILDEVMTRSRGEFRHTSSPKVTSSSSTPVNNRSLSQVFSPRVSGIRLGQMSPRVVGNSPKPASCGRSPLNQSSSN
Experimental: An experiment for measuring the structural stability of a boron transporter (Bor1) in an aqueous solution due to P-XMAs was performed. The Bor1 structural stability was measured using a CPM assay, and concentrations of P-XMAs and DDM were estimated by measuring relative amounts of folded proteins at CMC+0.04 wt % (a) and CMC+0.2 wt % (b) to analyze Bor1 protein stability according to the concentration of an amphiphilic molecule.
Specifically, Bor1 was expressed as a fusion protein with a C-terminal GFP-His tag in S. cerevisiae. All steps were carried out at 4° C. A Bor1-containing membrane was resuspended with PBS (pH 7.4), 100 mM NaCl, and 10% glycerol and solubilized in 1% DDM for 1 hour with gentle stirring, followed by ultracentrifugation at 200,000 g for 45 minutes. The supernatant was adjusted with 10 mM imidazole, and applied to two 5 ml Ni^2+-NTA columns pre-equilibrated with Buffer A (PBS (pH 7.4), 100 mM NaCl, 10% glycerol, 0.03% DDM) supplemented with 10 mM imidazole. The column was washed with 5 CV of Buffer A supplemented with 30 mM imidazole, and washed with 5 CV of Buffer A supplemented with 50 mM imidazole, followed by elution in Buffer A supplemented with 500 mM imidazole. […] A clear plate cover was added, and the fluorescence of each well was monitored at 40° C. for 120 minutes.

[4] = molecular target: T2, melibiose permease (MelB) (Salmonella typhimurium, UniProt P30878); test: MelB extraction from membranes and thermostability, SDS-PAGE and western blotting; settings: 1.5 wt % detergent, 90 minutes
T2 construct: made in house; host or cells: Salmonella typhimurium DW2 cells (ΔmelB and ΔlacZY) (so in the source); membrane preparation
T2 sequence (P30878 whole entry): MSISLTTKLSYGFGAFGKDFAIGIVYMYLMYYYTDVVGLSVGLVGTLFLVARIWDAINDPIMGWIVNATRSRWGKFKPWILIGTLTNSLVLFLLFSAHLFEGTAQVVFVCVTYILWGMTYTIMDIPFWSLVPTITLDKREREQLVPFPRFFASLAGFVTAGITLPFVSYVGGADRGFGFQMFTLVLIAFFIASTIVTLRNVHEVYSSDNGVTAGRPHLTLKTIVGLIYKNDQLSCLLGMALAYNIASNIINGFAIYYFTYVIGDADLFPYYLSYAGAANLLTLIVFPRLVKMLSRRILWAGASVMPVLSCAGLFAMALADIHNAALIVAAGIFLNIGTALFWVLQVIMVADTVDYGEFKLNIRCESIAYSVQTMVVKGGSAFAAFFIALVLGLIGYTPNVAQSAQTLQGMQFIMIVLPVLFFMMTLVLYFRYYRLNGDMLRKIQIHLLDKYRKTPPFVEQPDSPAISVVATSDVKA
Experimental: An experiment for measuring the structural stability of the Salmonella typhimurium melibiose permease (MelB) protein due to XMAs was performed. The MelB protein was extracted on a membrane using XMAs and DDM, and the amount and structure of the extracted protein were analyzed by SDS-PAGE and western blotting. A concentration of the used compound was 1.5 wt %, and the protein was extracted at a different temperature (0, 45, 55, or 65° C.) to evaluate two kinds of performance such as protein extraction efficiency and stabilization ability of the compound at the same time. Membrane samples that were not treated with XMAs or DDM were used as controls.
Specifically, MelBSt stability due to DDM and XMAs was evaluated according to the method described in the paper (P. S. Chae, et al., Nat. Methods 2010, 7, 1003-1008) written by the inventor in 2010. The protein (MelBSt) was produced using plasmid pK95ΔAHB/WT MelBSt/CH10 encoding wild-type MelB with a 10-His tag at the C-terminus and Salmonella typhimurium DW2 cells (ΔmelB and ΔlacZY). Cell growth and membrane preparation were carried out according to the method described in the paper (Nat. Commun. 2014, 5, 3009) written by A. S. Ethayathulla et al. A protein assay was performed using a Micro BCA kit (Thermo Scientific, Rockford, Ill.). To measure solubilization/stability, MelBSt-containing membrane samples (final protein concentration of 10 mg/mL) were incubated with a solubilization buffer (20 mM sodium phosphate, pH 7.5, 200 mM NaCl, 10% glycerol, 20 mM melibiose) and 1.5% (w/v) DDM, P-XMAs (P-XMA-C8, P-XMA-C9, P-XMA-C10, P-XMA-C11 and P-XMA-C12), M-XMAs (M-XMA-C11, M-XMA-C12, M-XMA-C14, M-XMA-C16 and M-XMA-C18) or O-XMAs (O-XMA-C11, O-XMA-C12, O-XMA-C14, O-XMA-C16 and O-XMA-C18) at four different temperatures (0, 45, 55 and 65° C.) for 90 minutes. Following ultracentrifugation at 355,590 g in a Beckman Optima™ MAX ultracentrifuge using a TLA-100 rotor for 45 minutes at 4° C., 20 μg proteins were separated by SDS-16% PAGE, and then immunoblotted with a Penta-His-HRP antibody (Qiagen, Germantown, Md.). MelBSt was detected using a SuperSignal West Pico chemiluminescent substrate by an ImageQuant LAS 4000 Biomolecular Imager (GE Health Care Life Sciences).

[5] = molecular target: T3, human β2 adrenergic receptor (β2AR) (Homo sapiens, UniProt P07550); test: mBBr-β2AR fluorescence spectrum after dilution to CMC or less; assay type: biochemical; settings: diluted with NH buffer, 30 minutes
T3 construct: made in house
T3 sequence (P07550 whole entry): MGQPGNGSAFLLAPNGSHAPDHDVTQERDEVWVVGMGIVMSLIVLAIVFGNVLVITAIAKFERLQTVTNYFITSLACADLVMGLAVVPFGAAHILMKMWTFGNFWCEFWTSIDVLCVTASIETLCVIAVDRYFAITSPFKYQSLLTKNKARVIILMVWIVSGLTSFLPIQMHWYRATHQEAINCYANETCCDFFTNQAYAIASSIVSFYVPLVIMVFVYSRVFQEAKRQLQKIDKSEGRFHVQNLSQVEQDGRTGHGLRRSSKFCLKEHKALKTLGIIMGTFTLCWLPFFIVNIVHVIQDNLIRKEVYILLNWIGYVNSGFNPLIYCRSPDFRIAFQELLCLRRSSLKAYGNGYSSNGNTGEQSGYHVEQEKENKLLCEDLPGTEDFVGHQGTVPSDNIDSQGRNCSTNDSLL
Experimental: An experiment for comparing changes in protein structures of XMAs and DDM at CMC or less of an amphiphilic molecule was carried out.
Specifically, 0.5 μl of an unliganded mBB-labeled receptor solubilized in 20×CMC P-XMA-C11 or P-XMA-C12 at 50 μM was diluted with 500 μl of a NH buffer (20 mM HEPES pH 7.5, 100 mM NaCl). The protein was incubated for 30 minutes, and the mBBr spectrum was measured. The receptor solubilized in 0.1% DDM was diluted with a NH buffer, and used as a control.

SMILES: CCCCCCCCCCCCO[C@@H]1O[C@H](CO)[C@@H](O[C@H]2O[C@H](CO)[C@@H](O)[C@H](O)[C@H]2O)[C@H](O)[C@H]1O [DDM, n-dodecyl-β-D-maltopyranoside, reference compound]
- CMC [1]: ~170 µM
- CMC (wt %) [1]: ~0.0087 wt %
- Rh (nm), hydrodynamic radius of micelles ([2]; 1.0 wt % stated for M-/O-XMAs (FIG. 37)): 3.4 nm and 3.4 ± 0.02 nm
- size distribution of micelles (number of micelle sets) ([2]; FIGS. 36 and 37): one set of micelles
- Bor1 structural stability (relative amount of folded protein) [3]: most instable state
- MelB protein extraction efficiency ([4]; 0° C.): high protein extraction efficiency
- MelB protein extraction efficiency ([4]; 45° C.): high protein extraction efficiency
- MelB protein extraction / maintained solubilization ([4]; 55° C.): hardly observed; also recorded: failed to maintain the solubilization of MelB
- MelB protein extraction ([4]; 65° C.): did not extract the protein
- structural change of β2AR on dilution to CMC or less [5]: clear structural change due to dilution
